Data set [1] has as its system H1115. The data set is described as follows: Therapeutic effect of cancer cell line, IC50. The data set is classed as cell-based. The note with it: H1115, NAPRT expression negative.
In data set [2] the test system is H661. The data set is described as follows: Therapeutic effect of cancer cell line, IC50. The data set is classed as cell-based. The following applies: Homo sapiens, NCI-H661; H661, NAPRT expression negative.
For data set [3], the target named is hERG channel (Homo sapiens, UniProt Q12809). The data set is described as follows: hERG screening by fluorescence polarization with red fluorescent hERG channel ligand tracer. The following applies: probe high affinity red fluorescent hERG channel ligand tracer, mean±standard deviation, read-out: % inhibition capacity. The data set is classed as binding.
Chain of hERG channel (Q12809 whole entry): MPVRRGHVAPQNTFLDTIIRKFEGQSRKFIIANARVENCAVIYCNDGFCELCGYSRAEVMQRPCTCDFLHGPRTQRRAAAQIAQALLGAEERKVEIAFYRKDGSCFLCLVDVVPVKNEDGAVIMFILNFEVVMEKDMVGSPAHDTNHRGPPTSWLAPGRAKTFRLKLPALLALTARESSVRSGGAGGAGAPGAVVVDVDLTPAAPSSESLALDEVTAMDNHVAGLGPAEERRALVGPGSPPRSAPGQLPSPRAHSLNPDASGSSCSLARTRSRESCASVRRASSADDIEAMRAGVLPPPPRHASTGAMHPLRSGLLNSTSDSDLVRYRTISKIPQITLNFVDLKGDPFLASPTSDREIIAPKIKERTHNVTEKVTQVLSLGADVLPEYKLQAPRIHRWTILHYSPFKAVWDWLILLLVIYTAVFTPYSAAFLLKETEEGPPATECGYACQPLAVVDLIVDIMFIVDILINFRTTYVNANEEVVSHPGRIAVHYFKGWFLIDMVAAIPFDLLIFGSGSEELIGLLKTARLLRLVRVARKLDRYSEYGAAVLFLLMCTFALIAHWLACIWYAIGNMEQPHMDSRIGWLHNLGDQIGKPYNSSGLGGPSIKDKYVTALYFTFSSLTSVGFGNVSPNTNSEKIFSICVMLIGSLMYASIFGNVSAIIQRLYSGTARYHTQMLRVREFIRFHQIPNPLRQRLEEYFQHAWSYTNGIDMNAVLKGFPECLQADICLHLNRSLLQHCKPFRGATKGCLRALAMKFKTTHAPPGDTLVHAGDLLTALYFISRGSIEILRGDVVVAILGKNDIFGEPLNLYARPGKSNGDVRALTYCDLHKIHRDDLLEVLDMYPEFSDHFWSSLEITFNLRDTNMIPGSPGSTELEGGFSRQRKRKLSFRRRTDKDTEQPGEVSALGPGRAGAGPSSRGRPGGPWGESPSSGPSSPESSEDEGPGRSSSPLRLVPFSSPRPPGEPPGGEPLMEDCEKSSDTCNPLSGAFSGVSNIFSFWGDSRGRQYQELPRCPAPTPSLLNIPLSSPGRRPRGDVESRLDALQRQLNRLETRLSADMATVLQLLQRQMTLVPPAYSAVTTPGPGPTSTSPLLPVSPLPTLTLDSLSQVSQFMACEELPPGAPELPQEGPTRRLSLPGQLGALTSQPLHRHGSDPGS
For data set [4], the system named is H322. The data set is described as follows: Therapeutic effect of cancer cell line, IC50. The data set is classed as cell-based. The following applies: NCI-H322; H322, NAPRT expression negative.
Data set [5] in a line: Microsome stability evaluation. The data set is classed as in vitro ADME, mouse. The note with it: after 30 minutes, 1 μM compound, 0.3 mg/ml microsomal protein, 1 mM NADPH. On the procedure:
(§1) Metabolic stability was assessed using human liver microsomes and mouse liver microsomes. Specifically, pooled male mouse liver microsomes (in-house preparation per SOP), pooled human liver microsomes (XENOTECH; […] The reaction was stopped by addition of acetonitrile ([…]) containing the same volume of internal standard. The precipitated proteins were removed by centrifugation and the supernatant was analyzed by LC/MS-MS method. […] Residual % parent compound=(peak area at time x/peak area at TO)×100.

In data set [6] the target is hERG K+ channel (Homo sapiens, UniProt Q12809). Description: hERG K+ channel activity evaluation, patch clamp. For orientation: hERG is a cardiac potassium channel; its block is linked to QT prolongation.
Chain of hERG K+ channel (Q12809 whole entry): as above
Experimental: In addition, as the hERG K+ channel activity evaluation, the potential risk of log QT prolongation according to the dose used was evaluated by measuring the current inhibition according to the drug using a patch clamp technique and evaluating the IC50.
Data set [7] can be described thus: Microsome stability evaluation. The data set is classed as in vitro ADME, human. The following applies: after 30 minutes, 1 μM compound, 0.3 mg/ml microsomal protein, 1 mM NADPH. On the procedure:
as §1

Data set [8] concerns liver cell (THLE-3). Description: Toxicity evaluation in normal cell line, cell viability. The data set is classed as cell-based. The note with it: THLE3; THLE-3, FIG. 26.
Data set [9] deals with Primary cardiomyocyte. Description: Toxicity assessment in normal cell line, cell viability. The data set is classed as cell-based. The note with it: high concentrations.
The subject of data set [10] is liver cell (THLE-2). The data set is described as above. The data set is classed as cell-based.
For data set [11], the system named is retinal pigment epithelium cell (RPE). The data set is described as above. The data set is classed as cell-based. The note with it: high concentrations.
In data set [12] the test system is H322, H661, H1155, H1993, H1975, H2030, H1299, H2122 and HBEC30. The data set is described as follows: Viability of various cancer cell lines by concentration (NAPRT positive vs negative). It is filed as cell-based.

For orientation: IC50 means the concentration at which inhibition is half-maximal. A word on the inhibition: it is how much of the control response was suppressed.

Take `O=C(NCc1ccc(-c2nc3cc4ccccc4cc3o2)cc1)c1cccnc1` [A4265, N-(4-(naphtho[2,3-d]oxazol-2-yl)benzyl)nicotinamide]: the IC50 was 10 nM in [1], less than 30 nM in [2], 3 nM in [4] and more than 100000 nM in data set [6]. Besides, in data set [3], the inhibition at 10 µM was 7.44 ± 3.12%. In data set [5], the “Mouse(%) parent compound remaining” value was 78.24 ± 6.49%. For the same compound, in data set [7], the “Human(%) parent compound remaining” value came out at 81.11 ± 4.76%.
For `O=C(/C=C/c1cccnc1)NCCCCC1CCN(C(=O)c2ccccc2)CC1` [FK866, N-[4-(1-benzoyl-4-piperidinyl)butyl]-3-(3-pyridinyl)-2E-propenamide], the 50% inhibitory concentration (IC50) is approximately 50 nM in data set [8] and approximately 50 nM in data set [10] (Homo sapiens, THLE-2, FIG. 25). The “cytotoxicity (cell viability)” value in [9] is “unpredictable cytotoxicity”; in data set [10] (THLE-2, high concentrations), “unpredictable cytotoxicity”; in [11], “unpredictable cytotoxicity”. For the same compound, the “Mouse(%) parent compound remaining” value in data set [5] was determined as 10.26 ± 0.91%. In addition, the “Human(%) parent compound remaining” value in data set [7] is on record as 25.48 ± 1.45%. Moreover, the “difference in LD50 values between the NAPRT positive cell line and the negative cell line” value in data set [12] was “approximately 10 times”.

For the origin of these results see patent US11795163B2, “Compound for inhibiting nicotinamide phosphoribosyltransferase and composition containing same” (CHECKMATE THERAPEUTICS INC., priority 2016, dated 2023).
